Patent US10899755B2, “Benzothiazole compounds and uses thereof” (Incyte Corporation, priority 2018, dated 2021)

Columns and labels:
[1] = target: HPK1; test: HPK1 Kinase Binding Assay; conditions: active HPK1 (SignalChem M23-11G), tracer 222, LanthaScreen Eu-Anti GST antibody, one hour incubation at 25° C.
Method: (§1) A stock solution of 1 mM test compound was prepared in DMSO. The compound plate was prepared by 3-fold and 11-point serial dilutions. 0.1 μL of the compound in DMSO was transferred from the compound plate to the white 384 well polystyrene plates. The assay buffer contained 50 mM HEPES, pH 7.5, 0.01% Tween-20, 5 mM MgCl2, 0.01% BSA, and 5 mM DTT. 5 μL of 4 nM active HPK1 (SignalChem M23-11G) prepared in the buffer was added to the plate. The enzyme concentration given was based on the given stock concentration reported by the vender. […] After one hour incubation at 25° C., the plates were read on a PHERAstar FS plate reader (BMG Labtech). Ki values were determined.

[2] = target: HPK1 (Homo sapiens, UniProt Q92918); test: HPK1 Kinase Binding Assay; conditions: active HPK1 (SignalChem M23-11G), tracer 222, LanthaScreen Eu-Anti GST antibody, one hour incubation at 25° C.
Chain of HPK1 (Homo sapiens, UniProt Q92918) (Q92918 whole entry, looked up): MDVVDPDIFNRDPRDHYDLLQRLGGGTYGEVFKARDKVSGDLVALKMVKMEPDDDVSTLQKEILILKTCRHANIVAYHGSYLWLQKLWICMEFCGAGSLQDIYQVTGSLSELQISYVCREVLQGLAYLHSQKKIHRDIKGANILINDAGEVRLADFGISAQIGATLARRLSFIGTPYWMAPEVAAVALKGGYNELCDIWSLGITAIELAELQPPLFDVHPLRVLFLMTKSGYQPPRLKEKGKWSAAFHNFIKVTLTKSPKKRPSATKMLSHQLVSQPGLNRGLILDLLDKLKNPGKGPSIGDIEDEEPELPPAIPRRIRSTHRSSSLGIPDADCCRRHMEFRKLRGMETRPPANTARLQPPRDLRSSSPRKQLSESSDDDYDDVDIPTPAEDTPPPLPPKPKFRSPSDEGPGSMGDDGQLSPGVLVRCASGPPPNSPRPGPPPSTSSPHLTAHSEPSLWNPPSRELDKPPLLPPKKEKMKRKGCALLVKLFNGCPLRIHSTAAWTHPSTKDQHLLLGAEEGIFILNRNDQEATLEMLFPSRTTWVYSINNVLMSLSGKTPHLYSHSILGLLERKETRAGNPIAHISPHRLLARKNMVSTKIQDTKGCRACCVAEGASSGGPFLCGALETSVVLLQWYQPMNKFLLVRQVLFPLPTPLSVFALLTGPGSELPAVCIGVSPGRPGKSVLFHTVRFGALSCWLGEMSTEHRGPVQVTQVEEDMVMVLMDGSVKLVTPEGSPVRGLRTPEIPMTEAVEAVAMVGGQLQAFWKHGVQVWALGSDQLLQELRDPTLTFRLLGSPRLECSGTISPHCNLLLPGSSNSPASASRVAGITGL
Method: as §1

Row | Ki [1] [µM] | Ki [2] [µM] | Structure (SMILES)
1 | < 0.1 | – | Cc1nc2c(N3CC[C@@H](N)C3)c(NC(=O)c3ccnc(-c4c(F)cccc4C(F)(F)F)n3)ccc2s1 [Example 3, (R)—N-(4-(3-Aminopyrrolidin-1-yl)-2-methylbenzo[d]thiazol-5-yl)-2-(2-fluoro-6-(trifluoromethyl)phenyl)pyrimidine-4-carboxamide]
2 | – | < 0.1 | Cc1nc2c(N3C[C@@H]4CC[C@H]3CN4)c(NC(=O)c3ccnc(-c4c(F)cccc4F)n3)ccc2s1 [Example 31, N-(4-((1S,4S)-2,5-Diazabicyclo[2.2.2]octan-2-yl)-2-methylbenzo[d]thiazol-5-yl)-2-(2,6-difluorophenyl)pyrimidine-4-carboxamide]
3 | – | < 0.1 | COc1cccc(F)c1-c1nccc(C(=O)Nc2ccc3sc(CN(C)C)nc3c2N2C[C@H](N)C[C@H]2CO)n1 [Example 32, N-(4-((2S,4R)-4-amino-2-(hydroxymethyl)pyrrolidin-1-yl)-2-((dimethylamino)methyl)benzo[d]thiazol-5-yl)-2-(2-fluoro-6-methoxyphenyl)pyrimidine-4-carboxamide]
